Assay results: the supplement of paper PMC11061612

Experiments:
Experiment in all cases: combination Emax (second highest fraction inhibited in the dose matrix, 72 h); higher = more inhibition; extreme values may be limits of the assay
[1] = tested on: Hs-633T (Other Solid Carcinomas)
Procedure, shortened: (§1)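 Cell lines grown in DMEM/F12 or RPMI with 10% FBS were plated in 1536-well plates and held 24 hours at 37°C, 5% CO2 before 72 hours of exposure to two-drug dose matrices, with DMSO typically at 0.2%. CellTiter-Glo 2.0 luminescence gave viability, which was converted to inhibition. Vehicle wells were set to 0 and blank wells to 1. Combination Emax is the second-highest inhibition in the matrix, and Bliss excess is the observed combination effect minus the expected EA + EB − EA·EB, where EA and EB are the single-agent effects.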

[2] = tested on: PCI-30 (Head and Neck Carcinoma)
Procedure, shortened: as §1

[3] = tested on: RT-112 (Bladder Carcinoma)
Procedure, shortened: as §1

NCI-H2461 (Mesothelioma) = tested on: NCI-H2461 (Mesothelioma)
Procedure, shortened: as §1

[4] = tested on: EN (Endometrial Carcinoma)
Procedure, shortened: as §1

SH-4 (Melanoma) = tested on: SH-4 (Melanoma)
Procedure, shortened: as §1

[5] = tested on: SU-DHL-6 (B-Cell Non-Hodgkin's Lymphoma)
Procedure, shortened: as §1

NCI-H28 (Mesothelioma) = tested on: NCI-H28 (Mesothelioma)
Procedure, shortened: as §1

HMV-II (Melanoma) = tested on: HMV-II (Melanoma)
Procedure, shortened: as §1

[6] = tested on: SUP-T1 (T-Lymphoblastic Leukemia)
Procedure, shortened: as §1

[7] = tested on: LoVo (Colorectal Carcinoma)
Procedure, shortened: as §1

NCI-H2795 (Mesothelioma) = tested on: NCI-H2795 (Mesothelioma)
Procedure, shortened: as §1

[8] = tested on: MDA-MB-468 (Breast Carcinoma)
Procedure, shortened: as §1

[9] = tested on: HO-1-u-1 (Oral Cavity Carcinoma)
Procedure, shortened: as §1

[10] = tested on: HCC-15 (Squamous Cell Lung Carcinoma)
Procedure, shortened: as §1

[11] = tested on: UMC-11 (Other Solid Carcinomas)
Procedure, shortened: as §1

[12] = tested on: KYSE-410 (Esophageal Squamous Cell Carcinoma)
Procedure, shortened: as §1

COLO-829 (Melanoma) = tested on: COLO-829 (Melanoma)
Procedure, shortened: as §1

[13] = tested on: TE-4 (Esophageal Squamous Cell Carcinoma)
Procedure, shortened: as §1

[14] = tested on: CAL-51 (Breast Carcinoma)
Procedure, shortened: as §1

Structure (SMILES) | combination Emax [1] | combination Emax [2] | combination Emax [3] | combination Emax (NCI-H2461 (Mesothelioma)) | combination Emax [4] | combination Emax (SH-4 (Melanoma)) | combination Emax [5] | combination Emax (NCI-H28 (Mesothelioma)) | combination Emax (HMV-II (Melanoma)) | combination Emax [6] | combination Emax [7] | combination Emax (NCI-H2795 (Mesothelioma)) | combination Emax [8] | combination Emax [9] | combination Emax [10] | combination Emax [11] | combination Emax [12] | combination Emax (COLO-829 (Melanoma)) | combination Emax [13] | combination Emax [14]
CS(=O)(=O)CCNCc1ccc(-c2ccc3ncnc(Nc4ccc(OCc5cccc(F)c5)c(Cl)c4)c3c2)o1 [Lapatinib] + Cn1cnc2c(F)c(Nc3ccc(Br)cc3Cl)c(C(=O)NOCCO)cc21 [Selumetinib] (first compound max 10 µM, 7x7, partner max 10 µM) | 0.478 | 0.335 | 0.486 | 0.488 | 0.345 | 0.868 | 0.974 | 0.412 | 0.768 | 0.53 | 0.742 | 0.893 | 0.882 | 0.789 |  |  |  |  |  | 
Cn1cnc2c(F)c(Nc3ccc(Br)cc3Cl)c(C(=O)NOCCO)cc21 [Selumetinib] + C[C@@H]1COCCN1C2=NC(=NC(=C2)C3(CC3)[S@](=N)(=O)C)C4=C5C=CNC5=NC=C4 [AZD6738] (first compound max 10 µM, 7x7, partner max 10 µM) | 0.748 | 0.371 | 0.555 | 0.571 | 0.558 | 0.91 | 0.405 | 0.471 | 0.735 | 0.713 | 0.738 | 0.855 |  | 0.718 | 0.503 | 0.603 | 0.302 | 0.597 | 0.791 | 0.964
Cn1cnc2c(F)c(Nc3ccc(Br)cc3Cl)c(C(=O)NOCCO)cc21 [Selumetinib] + CC(C)n1c(=O)n(C)c2cnc3cc(F)c(-c4ccc(OCCCN5CCCCC5)nc4)cc3c21 [AZD1390] (first compound max 10 µM, 7x7, partner max 0.3 µM) | 0.433 | 0.203 | 0.353 | 0.337 | 0.261 | 0.854 | 0.265 | 0.262 | 0.719 | 0.0785 | 0.425 | 0.846 |  | 0.188 | 0.421 | 0.0797 | 0.163 | 0.481 | 0.226 | 0.157
COc1nnc2ccc(N3CCC(c4ccc(OCCN5CCN(C)C(=O)[C@H]5C)cc4)CC3)nn12 [AZD5153] + C[C@@H]1COCCN1C2=NC(=NC(=C2)C3(CC3)[S@](=N)(=O)C)C4=C5C=CNC5=NC=C4 [AZD6738] (first compound max 1 µM, 7x7, partner max 10 µM) | 0.912 | 0.404 | 0.737 | 0.649 | 0.584 | 0.666 | 0.968 | 0.659 | 0.712 | 0.844 | 0.814 | 0.801 |  | 0.89 | 0.513 | 0.912 | 0.484 | 0.259 | 0.898 | 0.993
C[C@@H](c1ccc2nccn2c1)n1nnc2ncc(-c3cnn(C)c3)nc21 [Savolitinib] + CC1(C)CCC(CN2CCN(c3ccc(C(=O)NS(=O)(=O)c4ccc(NCC5CCOCC5)c([N+](=O)[O-])c4)c(Oc4cnc5[nH]ccc5c4)c3)CC2)=C(c2ccc(Cl)cc2)C1 [Venetoclax] (first compound max 1 µM, 7x7, partner max 1 µM) | 0.16 | 0.143 | 0.156 | 0.301 | 0.238 | 0.139 | 0.465 | 0.181 | 0.12 | 0.131 | 0.195 | 0.22 |  | 0.0993 | 0.175 | 0.13 | 0.124 | 0.209 | 0.145 | 0.113
COc1cc2ncnc(Nc3ccc(F)c(Cl)c3)c2cc1OCCCN1CCOCC1 [Gefitinib] + CC(C)n1c(=O)n(C)c2cnc3cc(F)c(-c4ccc(OCCCN5CCCCC5)nc4)cc3c21 [AZD1390] (first compound max 10 µM, 7x7, partner max 0.3 µM) | 0.203 | 0.131 | 0.176 | 0.256 | 0.248 | 0.149 | 0.433 | 0.346 | 0.411 | 0.382 | 0.421 | 0.324 |  | 0.487 | 0.0725 | 0.0797 | 0.362 | 0.143 | 0.981 | 0.068
C[C@@H](c1ccc2nccn2c1)n1nnc2ncc(-c3cnn(C)c3)nc21 [Savolitinib] + Cc1c2c(nn1C)CSCc1cc(n(C)n1)CSc1cc(c3ccccc3c1)OCCCc1c(C(=O)O)n(C)c3c-2c(Cl)ccc13 [AZD5991] (first compound max 1 µM, 7x7, partner max 1 µM) | 0.12 | 0.146 | 0.602 | 0.345 | 0.43 | 0.192 | 1 | 0.155 | 0.128 | 0.138 | 0.195 | 0.574 |  | 0.196 | 0.124 | 0.275 | 0.181 | 0.242 | 0.422 | 0.152
COc1nnc2ccc(N3CCC(c4ccc(OCCN5CCN(C)C(=O)[C@H]5C)cc4)CC3)nn12 [AZD5153] + Cc1c2c(nn1C)CSCc1cc(n(C)n1)CSc1cc(c3ccccc3c1)OCCCc1c(C(=O)O)n(C)c3c-2c(Cl)ccc13 [AZD5991] (first compound max 1 µM, 7x7, partner max 1 µM) | 0.631 | 0.344 | 0.922 | 0.498 | 0.645 | 0.89 | 1 | 0.465 | 0.76 | 0.726 | 0.545 | 0.864 |  | 0.561 | 0.535 | 0.994 | 0.348 | 0.514 | 0.847 | 0.917
CCc1c2c(nc3ccc(O)cc13)-c1cc3c(c(=O)n1C2)COC(=O)[C@]3(O)CC [SN-38] + O=C(c1cc(Cc2n[nH]c(=O)c3ccccc23)ccc1F)N1CCN(C(=O)C2CC2)CC1 [Olaparib] (first compound max 0.3 µM, 7x7, partner max 10 µM) | 0.842 | 0.727 | 0.762 | 0.639 | 0.18 | 0.48 | 1 | 0.429 | 0.641 | 0.84 | 0.717 | 0.771 | 0.773 | 0.695 |  | 0.24 | 0.423 | 0.662 | 0.402 | 0.801
Cn1cnc2c(F)c(Nc3ccc(Br)cc3Cl)c(C(=O)NOCCO)cc21 [Selumetinib] + C=CCn1c(=O)c2cnc(Nc3ccc(N4CCN(C)CC4)cc3)nc2n1-c1cccc(C(C)(C)O)n1 [AZD1775] (first compound max 10 µM, partner max 1 µM) | 0.628 | 0.173 | 0.61 | 0.569 | 0.587 | 0.94 | 0.616 | 0.433 | 0.812 | 0.809 | 0.723 | 0.851 |  | 0.456 | 0.612 | 0.584 | 0.431 | 0.481 | 0.642 | 0.893
COc1nnc2ccc(N3CCC(c4ccc(OCCN5CCN(C)C(=O)[C@H]5C)cc4)CC3)nn12 [AZD5153] + C=CCn1c(=O)c2cnc(Nc3ccc(N4CCN(C)CC4)cc3)nc2n1-c1cccc(C(C)(C)O)n1 [AZD1775] (first compound max 1 µM, partner max 1 µM) | 0.798 | 0.395 | 0.661 | 0.655 | 0.525 | 0.65 | 0.941 | 0.508 | 0.709 | 0.821 | 0.656 | 0.597 |  | 0.735 | 0.674 | 0.9 | 0.491 | 0.283 | 0.892 | 0.956
Cc1nc(-c2cn3c(n2)-c2ccc(-c4cnn(C(C)(C)C(N)=O)c4)cc2OCC3)n(C(C)C)n1 [Taselisib] + O=C(Nc1ccc2[nH]nc(-c3ccncc3)c2c1)[C@@H]1CCN(CC(=O)N2CCN(c3ccc(-c4ncccn4)cc3)CC2)C1 [SCH772984] (first compound max 10 µM, 7x7, partner max 5 µM) | 0.834 | 0.4 | 0.802 | 0.6 | 0.619 | 0.921 | 1 | 0.589 | 0.867 | 0.609 | 0.738 | 1 | 0.747 | 0.933 |  |  |  |  |  | 
C=CCn1c(=O)c2cnc(Nc3ccc(N4CCN(C)CC4)cc3)nc2n1-c1cccc(C(C)(C)O)n1 [AZD1775] + CCc1c2c(nc3ccc(O)cc13)-c1cc3c(c(=O)n1C2)COC(=O)[C@]3(O)CC [SN-38] (first compound max 1 µM, partner max 0.3 µM) | 0.868 | 0.836 | 0.985 | 0.702 | 0.699 | 0.607 | 1 | 0.551 | 0.634 | 0.84 | 0.818 | 0.779 | 0.828 | 0.869 |  |  |  |  |  | 
CS(=O)(=O)CCNCc1ccc(-c2ccc3ncnc(Nc4ccc(OCc5cccc(F)c5)c(Cl)c4)c3c2)o1 [Lapatinib] + NC1(c2ccc(-c3nc4ccn5c(=O)[nH]nc5c4cc3-c3ccccc3)cc2)CCC1 [MK-2206] (first compound max 10 µM, 7x7, partner max 10 µM) | 0.905 | 0.475 | 0.917 | 0.495 | 0.512 | 0.901 | 1 | 0.607 | 0.904 | 0.912 | 0.713 | 0.948 | 0.959 | 0.943 |  |  |  | 0.311 |  | 
